Data as given in BindingDB's records for patent US10246444 (Sabila Biosciences, 2019).

Molecular target: Epidermal growth factor receptor [T790M,L858R] (Homo sapiens, UniProt P00533, L858R/T790M)
Experiment: Kinase assay
Protocol: The assay is performed by combining three components: DNA-tagged kinase; immobilized ligand; and a test compound. The ability of the test compound to compete with the immobilized ligand is measured via quantitative PCR of the DNA tag.For most assays, kinase-tagged T7 phage strains were prepared in an E. coli host derived from the BL21 strain. E. coli were grown to log-phase and infected with T7 phage and incubated with shaking at 32° C. until lysis. The lysates were centrifuged and filtered to remove cell debris. The remaining kinases were produced in HEK-293 cells and subsequently tagged with DNA for qPCR detection. […] The liganded beads were blocked with excess biotin and washed with blocking buffer (SeaBlock (Pierce), 1% BSA, 0.05% Tween 20, 1 mM DTT) to remove unbound ligand and to reduce nonspecific binding. […] All reactions were performed in polystyrene 96-well plates in a final volume of 0.135 ml. […] The kinase concentration in the eluates was measured by qPCR.

Sequence of Epidermal growth factor receptor [T790M,L858R] (P00533 25-1210 T790M/L858R limits assumed): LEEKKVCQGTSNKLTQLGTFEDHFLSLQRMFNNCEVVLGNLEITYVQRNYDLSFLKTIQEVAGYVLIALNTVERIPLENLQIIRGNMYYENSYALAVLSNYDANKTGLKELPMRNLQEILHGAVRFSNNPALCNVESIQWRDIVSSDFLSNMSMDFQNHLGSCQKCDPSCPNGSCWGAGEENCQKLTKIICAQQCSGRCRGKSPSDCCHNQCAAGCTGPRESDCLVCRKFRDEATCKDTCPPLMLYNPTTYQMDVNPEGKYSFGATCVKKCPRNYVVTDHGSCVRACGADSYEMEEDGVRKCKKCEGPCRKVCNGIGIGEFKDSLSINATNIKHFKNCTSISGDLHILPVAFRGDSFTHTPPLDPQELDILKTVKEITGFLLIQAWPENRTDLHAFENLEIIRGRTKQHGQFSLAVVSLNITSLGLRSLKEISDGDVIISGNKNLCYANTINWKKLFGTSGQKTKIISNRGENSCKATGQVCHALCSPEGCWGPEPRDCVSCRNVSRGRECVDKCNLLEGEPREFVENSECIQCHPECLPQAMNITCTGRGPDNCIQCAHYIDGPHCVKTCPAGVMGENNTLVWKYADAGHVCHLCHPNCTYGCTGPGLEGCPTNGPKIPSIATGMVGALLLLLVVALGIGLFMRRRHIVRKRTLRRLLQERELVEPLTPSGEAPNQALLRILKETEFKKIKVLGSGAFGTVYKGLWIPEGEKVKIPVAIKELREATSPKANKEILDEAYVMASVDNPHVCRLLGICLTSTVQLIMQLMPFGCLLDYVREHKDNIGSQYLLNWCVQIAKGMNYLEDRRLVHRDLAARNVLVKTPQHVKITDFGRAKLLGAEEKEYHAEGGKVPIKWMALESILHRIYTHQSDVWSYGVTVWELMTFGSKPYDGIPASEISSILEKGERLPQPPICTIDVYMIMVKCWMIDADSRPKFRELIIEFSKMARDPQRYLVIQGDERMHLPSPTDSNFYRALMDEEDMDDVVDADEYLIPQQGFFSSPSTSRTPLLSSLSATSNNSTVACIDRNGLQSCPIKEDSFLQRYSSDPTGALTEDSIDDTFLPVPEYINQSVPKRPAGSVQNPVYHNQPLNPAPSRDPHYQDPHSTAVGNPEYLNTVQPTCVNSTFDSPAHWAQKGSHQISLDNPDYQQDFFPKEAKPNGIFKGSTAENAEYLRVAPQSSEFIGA

Kd: > 10 µM
SMILES: CCOc1cc2ncc(C#N)c(Nc3ccc(OCc4cccc(F)c4)c(Cl)c3)c2cc1NC(=O)CC1CCSS1 (stereo unspecified) [US10246444, Example 40]
